{"source": "patent US5374772A", "about": "“Substituted benzoic acids, inhibitors of phospholipases A2” (Hoffmann-LaRoche Inc., priority 1993, dated 1994)", "system": "paw edema induced by Naja naja venom phospholipase A2", "assay": "Phospholipase A2 Rat Paw Edema", "assay_type": "in vivo, Lewis rats", "conditions": "30 mg/kg ip, measured 2 hours after PLA2 injection", "data": [{"smiles": "CCCCCCCCCCCCCCCCCCOc1cc(OC(=O)C(c2ccccc2)c2ccccc2)cc(C(=O)O)c1", "note": "[Example 11, 3-(Octadecyloxy)-5-(2,2-diphenyl-1-oxoethoxy) benzoic acid]", "values": [{"measurement": "inhibition of edema (PLA2 rat paw edema)", "value": 29, "unit": "%"}]}]}
